Reference: patent publication US20050153870A1, “Medicinal composition for diagnosis, prevention, or therapy of multiple risk factor syndrome” (priority 2002, published 2005)
Marks after values point to notes of the source that are not given here.

Legend:
Lean = test: Body weight and blood sugar in Lean mice (Example 7); assay type: in vivo, mouse; conditions: for Body weight / Blood sugar level: in feed for a week (MAC 0.05%, AS-103 0.05%, AR-610 0.1%, AF 0.4%, AC 0.05%); for Body weight: control group 20.9 ± 0.8; for Blood sugar level: control group 211.2 ± 7.8; for Blood sugar level, change vs control group / Body weight, change vs control group: in feed for a week, contents as in table
Protocol: [The procedure below names another variant; the source lists this variant under the same test.] (§1) Powered feed to which ascofuranone (AF) and ascochlorin (AC) as well as its derivatives, 4-0-methylascochlorin (MAC), 4-0-carboxymethylascochlorin (AS-6), and 4-0-nicotinoyl ascochlorin (AS-103) were added to feed at the proportions shown in the table, and the feed were given to db/db mice for a week and then analyzed for blood sugar decreasing effect (8 mice/group).

quail = test: Arteriosclerosis suppressing effect, quail on cholesterol feed; assay type: in vivo; conditions: poultry feed containing 2% of cholesterol, 9 months, 0.0125 to 0.2% added to feed
Description: As to prevention/therapy of arteriosclerosis, a big difference is observed in effect between medicaments conceivably effective in improving arteriosclerosis, such as fibrate series medicament, thiazolidine series medicament, probucol, and statin series medicament and a compound of the present invention.

db/db mice = test: Blood sugar decreasing effect in db/db mice (Example 7); assay type: in vivo, mouse; conditions: for Body weight / Blood sugar level: in feed for a week (MAC 0.05%, AS-103 0.05%, AR-610 0.1%, AF 0.4%, AC 0.05%); for Body weight: control group 44.6 ± 0.9; for Blood sugar level: control group 549.8 ± 21.8; for Blood sugar level, change vs control group / Body weight, change vs control group: in feed for a week, contents as in table
Protocol: as §1

Rat = test: Glucogenesis in the liver; assay type: in vivo; conditions: perorally
Description: Compounds of this series suppresses hepatic glucogenesis which is induced by administration of dexamethazon to a rat. For this reason, it antagonizes the action of glucocorticoid in vivo. The compound further has an effect of suppressing steroid diabetes characterized by polydipsia and polyurea and urine sugar excretion induced by administering cortisol to a rat. […] These facts strongly support that compounds of this series is useful in preventing and/or treating visceral fat syndrome.

Mouse, db/db mouse = test: Serum insulin decreasing effect; assay type: in vivo; conditions: about 0.1% added to feed
DOCA hypertension rat = test: Periarteritis nodosa; assay type: in vivo; conditions: 50 mg/kg perorally, DOCA/saline administered rat having one of the kidneys excised out
Protocol: Rats having a cardiovascular disease due to hypertension, often develop periarteritis nodosa, which is typical blood-vessel inflammation caused in thin and small artery such as mesenteric artery. […] These are preventive effects. […] To explain more specifically, mineral corticoid is administered to rats having one of the kidneys excised out and raised for a month by giving saline as drinking water. After confirming onset of periarteritis nodosa, administration of mineral corticoid and saline is stopped and the rats are brought back under normal feeding conditions. As a result, the blood pressure of the rats gradually decreases near a normal value and periarteritis nodosa heals and disappears.

[1] = test system: Mouse, rat, beagle dog, quail, DOCA hypertension rat; test: Serum cholesterol decreasing effect; assay type: in vivo; conditions: incl. rat and quail raised with hyperfat feed
Protocol: The quails are raised by giving a feed containing 2% cholesterol for 9 months to develop hypercholesteremia, and, in the case of the rats, mineral corticoid and saline are administered to allow them to develop heart and blood vessel disease and then hypercholesteremia.

[2] = test system: patients with type II diabetes; test: Glucose tolerance test in Clinical test II; assay type: in vivo, human; conditions: 50 g of glucose perorally at fasting; after therapy of 12 weeks vs before; 30 patients
Protocol: A glucose tolerance test were performed by perorally taking 50 g of glucose at fasting time in the early morning and measuring concentrations of blood sugar and urine sugar with time. A solid line represents the results immediately before therapy and a broken line represents immediately after the therapy of 12 weeks. Since a process of a glucose tolerance test more or less varied depending upon medical institutions, data of all patients (30 patients) with type II diabetes participated in this test in a single and the same institution are statistically analyzed and shown. […] Note that, in the FIGS. 2 and 3, numerical values each represent average value±standard deviation.

Zucker rats [3] = test: Glucose tolerance test using Zucker rats (Example 6); assay type: in vivo, rat
Protocol: The effect of 4-O-carboxymethylascochlorin (AS-6) in a glucose tolerance test were checked by using Zucker rats. Zucker control rats, Zucker AS-6 administered rats (20 mg/kg, perorally for a week), and Lean control rats were fasted overnight. Next morning, blood was taken from the caudal vein, and thereafter, 2 g/kg of glucose was perorally administered. Blood was taken from the caudal vein 30, 60 and 120 minutes after the administration and checked for blood sugar (7 mice/group).

Db/db mouse, Zucker rat = test: Insulin sensitivity test; assay type: in vivo; conditions: feed containing 0.1% for one week, hereditary obese animal
Zucker rats [4] = test: Blood pressure of Zucker rat (Example 8); assay type: in vivo; conditions: for blood pressure, change vs Zucker control group / blood pressure: 0.1% in feed; for blood pressure: AS-6 group at 0th week 144 ± 6
Protocol: Zucker rats were raised for 4 weeks with feed in which 4-0-carboxylmethyl ascochlorin (AS-6) was mixed in a content of 0.1%. At the 0th, 2nd and 4th week of initiation of feeding, blood pressure was measured (6 rats/group).

Zucker rats [5] = test: AS-6 in feed to Zucker rats for 10 weeks (Example 5); assay type: in vivo, rat; conditions: 0.12% in feed
Protocol: Zucker rats were divided into two groups. One group was raised with commercially available feed to which 4-O-carboxymethylascochlorin (AS-6) was mixed up to a content of 0.12%. The other group and normal Lean-rat littermate group were raised for 10 weeks with the same commercially available feed containing no AS-6. Thereafter, body weight, white adipose cell weight, blood insulin, blood sugar, and blood lipid were measured (7 mice/group).

[6] = Zucker rats, 20 mg/kg perorally for a week

## COc1c(Cl)c(C)c(C=O)c(O)c1C/C=C(C)/C=C/[C@@]1(C)[C@H](C)CCC(=O)[C@@H]1C [4-O-methylascochlorin]
Lean
  Body weight: 21.3 ± 0.9 g
  Blood sugar level: 223.1 ± 11.6 mg/dL
  Blood sugar level, change vs control group: ns
  Body weight, change vs control group: ns
quail
  atherosclerosis of the aorta, hypercholesterolemia, deposition of cholesterol onto the heart and the aorta: the aforementioned changes are suppressed.
db/db mice
  Body weight: 45.5 ± 1.8 g
  Blood sugar level: 478.0 ± 28.3 mg/dL
  Blood sugar level, change vs control group: −13.3%*
  Body weight, change vs control group: ns
Rat
  glucogenesis performed in the liver: performed in the liver is suppressed.
Mouse, db/db mouse
  serum insulin: added in an amount of about 0.1% to feed and given to an animal, it decreases serum
DOCA hypertension rat
  Periarteritis nodosa: significantly suppressed. When ascofuranone is perorally administered to SHR of a
[1]
  serum cholesterol decreasing effect: carboxymethylascochlorin, and ascofuranone exhibits an effect of decreasing serum
[2]
  blood sugar level in glucose tolerance test (FIG. 2): significantly decreases blood sugar level
  urine sugar level in glucose tolerance test (FIG. 3): significantly decreases the concentration of glucose contained in the urine

## CC(C=CC1(C)C(C)CCC(=O)C1C)=CCc1c(O)c(C=O)c(C)c(Cl)c1OCC(=O)O (centres unmarked) [AS-6, 4-O-carboxymethylascochlorin]
Lean
  Body weight: 20.2 ± 0.4 g
  Blood sugar level: 194.1 ± 9.5 mg/dL
  Blood sugar level, change vs control group: ns
  Body weight, change vs control group: ns
Zucker rats [3]; 0 minute after glucose loading
  blood sugar, change vs Zucker control group: −19.7%(*)
Zucker rats [3]; 20 mg/kg perorally for a week, 0 minute after glucose loading (fasted overnight), Zucker control 107.5 ± 5.0
  blood sugar: 86.3 ± 4.5
Zucker rats [3]; 20 mg/kg perorally for a week, 30 minutes after glucose loading, Zucker control 235.1 ± 9.6
  blood sugar: 167.5 ± 3.8
Zucker rats [3]; 20 mg/kg perorally for a week, 60 minutes after glucose loading, Zucker control 275.8 ± 13.2
  blood sugar: 220.2 ± 5.0
Zucker rats [3]; 20 mg/kg perorally for a week, 120 minutes after glucose loading, Zucker control 290.3 ± 4.6
  blood sugar: 202.8 ± 3.6
Zucker rats [3]; 30 minutes after glucose loading
  blood sugar, change vs Zucker control group: −28.8%(**)
Zucker rats [3]; 60 minutes after glucose loading
  blood sugar, change vs Zucker control group: −20.2%(*)
Zucker rats [3]; 120 minutes after glucose loading
  blood sugar, change vs Zucker control group: −30.1%(**)
Zucker rats [3]; [6]
  blood sugar level 30, 60, 120 minutes after glucose loading: significant decreases
  decrease of fasting blood sugar level: 19.7%
Db/db mouse, Zucker rat
  sensitivity to insulin: insulin was significantly improved.
db/db mice
  Body weight: 45.3 ± 1.7 g
  Blood sugar level: 335.8 ± 8.5 mg/dL
  Blood sugar level, change vs control group: −38.9%**
  Body weight, change vs control group: ns
Mouse, db/db mouse
  serum insulin: added in an amount of about 0.1% to feed and given to an animal, it decreases serum
Zucker rats [4]; 2nd week
  blood pressure, change vs Zucker control group: −13.7%(**)
Zucker rats [4]; 2nd week, Zucker control 153 ± 6
  blood pressure: 132 ± 5
Zucker rats [4]; 4th week
  blood pressure, change vs Zucker control group: −19.9%(**)
Zucker rats [4]; 4th week, Zucker control 156 ± 7
  blood pressure: 125 ± 6
Zucker rats [4]; 2nd week after the initiation of feeding
  decrease in blood pressure in comparison with the Zucker control group: 13.7%
Zucker rats [4]; 4th week after the initiation of feeding
  decrease in blood pressure in comparison with the Zucker control group: 19.9%
Zucker rats [5]
  Blood sugar (full feeding), change vs Zucker control group: ns
  Body weight, change vs Zucker control group: ns
  Cholesterol, change vs Zucker control group: ns
  Free fatty acid, change vs Zucker control group: −50.0%
  Insulin, change vs Zucker control group: −23.4%
  Neutral fat, change vs Zucker control group: −49.8%
  Phospholipid, change vs Zucker control group: −14.3%
  White adipose cells, change vs Zucker control group: ns
Zucker rats [5]; Zucker control 1.391 ± 0.110
  Free fatty acid: 0.696 ± 0.069
Zucker rats [5]; Zucker control 4.06 ± 0.09
  White adipose cells: 3.66 ± 0.11
Zucker rats [5]; Zucker control 117.4 ± 4.8
  Cholesterol: 123.6 ± 7.8
Zucker rats [5]; Zucker control 176.3 ± 14.7
  Insulin: 135.1 ± 15.6
Zucker rats [5]; Zucker control 340.8 ± 12.0
  Phospholipid: 292.1 ± 8.9
Zucker rats [5]; Zucker control 362 ± 13
  Body weight: 358 ± 15
Zucker rats [5]; Zucker control 928.6 ± 47.7
  Neutral fat: 466.3 ± 60.2
Zucker rats [5]; Zucker control printed 73.0 ± 14.5
  Blood sugar (full feeding): 174.3 ± 19.0
Zucker rats [5]; Zucker rats
  insulin, free fatty acid, neutral fat and phospholipid: significantly reduced
[1]
  serum cholesterol decreasing effect: carboxymethylascochlorin, and ascofuranone exhibits an effect of decreasing serum
